According to PubChem BioAssay (NCI):
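Protocol summary: plate cells (96-well), add compound at 5 concentrations, incubate 48 h, interpolate endpoints linearly. Abbreviation: GI50, concentration required for 50% inhibition of growth. The concentration for full growth arrest is given as TGI.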

Key:
Experiment in all cases: inhibition of tumour cell growth, NCI panel, 48 h
[1] = test system: A549 NSCLC
[2] = test system: A498 renal
[3] = test system: MDA-MB-435
[4] = test system: HT29 colon
[5] = test system: SW-620 colon
[6] = test system: TK-10 renal
[7] = test system: MDA-MB-231 breast
[8] = test system: U251 CNS
[9] = test system: SK-MEL-5 melanoma
[10] = test system: OVCAR-3 ovarian
[11] = test system: HS 578T breast
[12] = test system: HCC-2998 colon
[13] = test system: SK-OV-3 ovarian
[14] = test system: RPMI-8226 leukemia
[15] = test system: SK-MEL-28 melanoma
[16] = test system: CAKI-1 renal
[17] = test system: SF-539 CNS
[18] = test system: SF-295 CNS
[19] = test system: UACC-62 melanoma
[20] = test system: KM12 colon
[21] = test system: EKVX NSCLC
[22] = test system: K-562 leukemia
[23] = test system: MOLT-4 leukemia
[24] = test system: LOX IMVI melanoma
[25] = test system: NCI/ADR-RES ovarian
[26] = test system: MCF7 breast
[27] = test system: M14 melanoma
[28] = test system: HOP-92 NSCLC
[29] = test system: ACHN renal
[30] = test system: OVCAR-4 ovarian
[31] = test system: NCI-H460 lung
[32] = test system: HOP-62 NSCLC
[33] = test system: IGROV1 ovarian
[34] = test system: SF-268 CNS
[35] = test system: HCT-116 colon
[36] = test system: COLO 205 colon
[37] = test system: SNB-75 CNS
[38] = test system: CCRF-CEM leukemia
[39] = test system: T-47D breast
[40] = test system: HL-60(TB) leukemia
[41] = test system: HCT-15 colon
[42] = test system: NCI-H226 lung
[43] = test system: PC-3 prostate
[44] = test system: BT-549 breast
[45] = test system: SK-MEL-2 melanoma
[46] = test system: OVCAR-5 ovarian
[47] = test system: MALME-3M melanoma
[48] = test system: SNB-19 CNS
[49] = test system: NCI-H23 lung
[50] = test system: RXF 393 renal
[51] = test system: NCI-H522 lung
[52] = test system: UO-31 renal
[53] = test system: SR leukemia
[54] = test system: SN12C renal
[55] = test system: 786-0 renal
[56] = test system: DU-145 prostate
[57] = test system: UACC-257 melanoma
[58] = test system: OVCAR-8 ovarian

COc1cc(NC(=O)c2cc(O)c(C/C=C(\C)CCC=C(C)C)c(O)c2)cc2c1O[C@]1(C)CC[C@@H](O)C(C)(C)[C@H]1C2 gave a GI50 [1] of 1.98 µM, a TGI [1] of 6.66 µM and a GI50 [2] of 0.963 µM. For the same molecule, the TGI [2] was 7.9 µM, the GI50 [3] was 2.01 µM and the TGI [3] was 8.19 µM. For the same molecule, the GI50 [4] was 1.62 µM, the TGI [4] was 5.79 µM and the GI50 [5] was 2.62 µM. The TGI [5] was 13.1 µM, the GI50 [6] was 3.42 µM and the TGI [6] was 13.7 µM. It also gave a GI50 [7] of 1.11 µM, a TGI [7] of 5.04 µM and a GI50 [8] of 0.724 µM. For the same molecule, the TGI [8] was 5.33 µM, the GI50 [9] was 1.34 µM and the TGI [9] was 2.9 µM. It also gave a GI50 [10] of 1.88 µM, a TGI [10] of 5.49 µM and a GI50 [11] of 0.348 µM. The TGI [11] was 8.75 µM, the GI50 [12] was 2.21 µM and the TGI [12] was 7.22 µM. It also gave a GI50 [13] of 1.79 µM, a TGI [13] of 12.9 µM and a GI50 [14] of 0.262 µM. The TGI [14] was 1.32 µM, the GI50 [15] was 1.43 µM and the TGI [15] was 8.25 µM. It also gave a GI50 [16] of 1.53 µM, a TGI [16] of 11.8 µM and a GI50 [17] of 0.348 µM. It also gave a TGI [17] of 2.38 µM, a GI50 [18] of 0.306 µM and a TGI [18] of 1.52 µM. The GI50 [19] was 1.42 µM, the TGI [19] was 3.37 µM and the GI50 [20] was 1.63 µM. It also gave a TGI [20] of 4.44 µM, a GI50 [21] of 2.25 µM and a TGI [21] of 11.4 µM. For the same molecule, the GI50 [22] was 0.957 µM, the TGI [22] was 4.88 µM and the GI50 [23] was 0.409 µM. The TGI [23] was 5.83 µM, the GI50 [24] was 1.35 µM and the TGI [24] was 2.89 µM. For the same molecule, the GI50 [25] was 7.89 µM, the TGI [25] was 44.5 µM and the GI50 [26] was 1.08 µM. The TGI [26] was 5.73 µM, the GI50 [27] was 1.48 µM and the TGI [27] was 4.09 µM. For the same molecule, the GI50 [28] was 0.627 µM, the TGI [28] was 3.89 µM and the GI50 [29] was 2.21 µM. For the same molecule, the TGI [29] was 10.1 µM, the GI50 [30] was 2.57 µM and the TGI [30] was 12.7 µM. The GI50 [31] was 1.97 µM, the TGI [31] was 11.2 µM and the GI50 [32] was 1.58 µM. The TGI [32] was 8.22 µM, the GI50 [33] was 2.45 µM and the TGI [33] was 11.1 µM. It also gave a GI50 [34] of 1.56 µM, a TGI [34] of 5.74 µM and a GI50 [35] of 2.07 µM. It also gave a TGI [35] of 12.3 µM, a GI50 [36] of 2.22 µM and a TGI [36] of 6.72 µM. The GI50 [37] was 0.444 µM, the TGI [37] was 2.75 µM and the GI50 [38] was 0.463 µM. It also gave a TGI [38] of 7.21 µM, a GI50 [39] of 1.63 µM and a TGI [39] of 6.95 µM. The GI50 [40] was 0.549 µM, the TGI [40] was 4.88 µM and the GI50 [41] was 2.09 µM. It also gave a TGI [41] of 7.53 µM, a GI50 [42] of 3.34 µM and a TGI [42] of 16.2 µM. The GI50 [43] was 0.849 µM, the TGI [43] was 7.16 µM and the GI50 [44] was 0.841 µM. For the same molecule, the TGI [44] was 3.55 µM, the GI50 [45] was 1.06 µM and the TGI [45] was 3.43 µM. For the same molecule, the GI50 [46] was 4.09 µM, the TGI [46] was 19.2 µM and the GI50 [47] was 1.62 µM. For the same molecule, the TGI [47] was 5.39 µM, the GI50 [48] was 1.36 µM and the TGI [48] was 4.46 µM. For the same molecule, the GI50 [49] was 2.38 µM, the TGI [49] was 12.8 µM and the GI50 [50] was 0.209 µM. It also gave a TGI [50] of 0.747 µM, a GI50 [51] of 2.02 µM and a TGI [51] of 6.5 µM. It also gave a GI50 [52] of 2.7 µM, a TGI [52] of 9.71 µM and a GI50 [53] of 0.418 µM. The TGI [53] was 4.34 µM, the GI50 [54] was 2.9 µM and the TGI [54] was 12.1 µM. The GI50 [55] was 0.604 µM, the TGI [55] was 6.44 µM and the GI50 [56] was 2.25 µM. It also gave a TGI [56] of 12.2 µM, a GI50 [57] of 2.82 µM and a TGI [57] of 14.3 µM. The GI50 [58] was 2.58 µM and the TGI [58] was 14.7 µM.
